Values after ≈ are worked out from the molar mass of the structure shown.
Assays:
[1] = Metabolic stability assessed as 3-((4-(2-hydroxyquinoxalin- 6-yl)-5-(6-methylpyridin-2-yl)-1H-imidazol-2-yl)methyl)benzamide or 3-((4-(3-hydroxyquinoxalin-6-yl)-5-(6-methylpyridin-2-yl)- 1H-imidazol-2-yl)methyl)benzamide) levels at 120 uM by HPLC analysis in presence human recombinant CYP2C19; type: ADME; conditions: recombinant enzyme
[2] = Metabolic stability assessed as 3-((4-(2-hydroxyquinoxalin- 6-yl)-5-(6-methylpyridin-2-yl)-1H-imidazol-2-yl)methyl)benzamide or 3-((4-(3-hydroxyquinoxalin-6-yl)-5-(6-methylpyridin-2-yl)- 1H-imidazol-2-yl)methyl)benzamide) levels at 120 uM by HPLC analysis in presence human recombinant CYP2C8; type: ADME; conditions: recombinant enzyme
[3] = Metabolic stability assessed as 3-((4-(2-hydroxyquinoxalin- 6-yl)-5-(6-methylpyridin-2-yl)-1H-imidazol-2-yl)methyl)benzamide or 3-((4-(3-hydroxyquinoxalin-6-yl)-5-(6-methylpyridin-2-yl)- 1H-imidazol-2-yl)methyl)benzamide) levels at 120 uM by HPLC analysis in presence human recombinant CYP3A4; type: ADME; conditions: recombinant enzyme
[4] = Metabolic stability assessed as 3-((4-(2-hydroxyquinoxalin- 6-yl)-5-(6-methylpyridin-2-yl)-1H-imidazol-2-yl)methyl)benzamide or 3-((4-(3-hydroxyquinoxalin-6-yl)-5-(6-methylpyridin-2-yl)- 1H-imidazol-2-yl)methyl)benzamide) levels at 120 uM by HPLC analysis in presence human recombinant CYP2D6; type: ADME; conditions: recombinant enzyme
[5] = Metabolic stability assessed as 3-((4-(2-hydroxyquinolin-6-yl)-5-(6-methylpyridin-2-yl)-1H-imidazol-2-yl)methyl)benzamide or 3-((4-(3-hydroxyquinolin-6-yl)-5-(6-methylpyridin-2-yl)-1H-imidazol-2-yl)methyl)benzamide levels at 120 uM by HPLC analysis in presence human recombinant CYP3A4; type: ADME; conditions: recombinant enzyme
[6] = molecular target: Vascular endothelial growth factor receptor 3 (Homo sapiens, UniProt P35916); assay: Inhibition of VEGFR3
TGF-beta receptor type-1 = molecular target: T1, TGF-beta receptor type-1 (Homo sapiens, UniProt P36897)
T1 sequence (P36897 whole entry): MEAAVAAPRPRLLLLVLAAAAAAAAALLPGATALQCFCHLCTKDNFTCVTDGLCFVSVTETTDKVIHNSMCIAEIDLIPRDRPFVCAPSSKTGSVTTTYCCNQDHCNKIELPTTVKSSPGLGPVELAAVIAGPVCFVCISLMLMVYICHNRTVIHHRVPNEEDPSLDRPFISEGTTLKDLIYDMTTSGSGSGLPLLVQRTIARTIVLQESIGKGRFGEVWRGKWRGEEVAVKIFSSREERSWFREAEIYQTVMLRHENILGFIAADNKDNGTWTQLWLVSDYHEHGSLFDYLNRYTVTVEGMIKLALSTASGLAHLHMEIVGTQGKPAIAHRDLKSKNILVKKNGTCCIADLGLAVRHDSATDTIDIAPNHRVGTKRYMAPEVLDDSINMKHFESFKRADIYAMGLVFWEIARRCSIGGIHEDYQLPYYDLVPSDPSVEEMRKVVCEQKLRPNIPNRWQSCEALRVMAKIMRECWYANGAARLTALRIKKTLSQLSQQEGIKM
Description: Inhibition of human recombinant GST-fused ALK5 expressed in Sf9 cells

[7] = molecular target: Platelet-derived growth factor receptor alpha (Homo sapiens, UniProt P16234); assay: Inhibition of PDGFRalpha
[8] = Metabolic stability assessed as 3-((4-(2-hydroxyquinolin-6-yl)-5-(6-methylpyridin-2-yl)-1H-imidazol-2-yl)methyl)benzamide or 3-((4-(3-hydroxyquinolin-6-yl)-5-(6-methylpyridin-2-yl)-1H-imidazol-2-yl)methyl)benzamide levels at 120 uM by HPLC analysis in presence human recombinant CYP2C8; type: ADME; conditions: recombinant enzyme
[9] = molecular target: Vascular endothelial growth factor receptor 1 (Homo sapiens, UniProt P17948); assay: Inhibition of VEGFR1
[10] = Metabolic stability assessed as 3-((4-(2-hydroxyquinolin-6-yl)-5-(6-methylpyridin-2-yl)-1H-imidazol-2-yl)methyl)benzamide or 3-((4-(3-hydroxyquinolin-6-yl)-5-(6-methylpyridin-2-yl)-1H-imidazol-2-yl)methyl)benzamide levels at 120 uM by HPLC analysis in presence human recombinant CYP2C19; type: ADME; conditions: recombinant enzyme
[11] = molecular target: T2, Serine/threonine-protein kinase D1 (Homo sapiens, UniProt Q15139); assay: Inhibition of PKCmu
T2 sequence (Q15139 whole entry): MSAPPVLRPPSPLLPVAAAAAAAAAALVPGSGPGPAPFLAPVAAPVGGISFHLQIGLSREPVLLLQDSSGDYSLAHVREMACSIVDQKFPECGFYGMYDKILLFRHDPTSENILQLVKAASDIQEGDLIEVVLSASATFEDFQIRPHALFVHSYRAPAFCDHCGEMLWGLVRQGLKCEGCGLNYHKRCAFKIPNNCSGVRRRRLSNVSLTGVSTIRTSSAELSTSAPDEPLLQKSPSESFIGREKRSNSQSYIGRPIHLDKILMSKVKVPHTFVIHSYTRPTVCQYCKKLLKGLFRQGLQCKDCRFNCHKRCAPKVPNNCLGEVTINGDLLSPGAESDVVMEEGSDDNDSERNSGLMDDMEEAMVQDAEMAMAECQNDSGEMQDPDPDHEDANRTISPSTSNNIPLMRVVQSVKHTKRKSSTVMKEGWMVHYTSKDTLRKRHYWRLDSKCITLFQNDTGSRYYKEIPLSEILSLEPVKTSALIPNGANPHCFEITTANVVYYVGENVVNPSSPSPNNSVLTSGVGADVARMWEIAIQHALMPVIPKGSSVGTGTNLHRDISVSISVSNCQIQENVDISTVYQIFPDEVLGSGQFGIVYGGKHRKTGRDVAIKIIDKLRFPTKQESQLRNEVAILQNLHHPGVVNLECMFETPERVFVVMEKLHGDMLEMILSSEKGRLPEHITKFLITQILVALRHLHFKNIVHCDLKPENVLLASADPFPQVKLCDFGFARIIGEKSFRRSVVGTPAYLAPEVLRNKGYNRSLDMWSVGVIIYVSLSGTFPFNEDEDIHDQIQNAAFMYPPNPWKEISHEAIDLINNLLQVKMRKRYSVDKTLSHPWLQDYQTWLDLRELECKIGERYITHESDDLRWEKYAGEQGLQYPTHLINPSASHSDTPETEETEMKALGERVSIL

[12] = molecular target: Vascular endothelial growth factor receptor 2 (Homo sapiens, UniProt P35968); assay: Inhibition of VEGFR2
[13] = Aqueous solubility in buffer solution at pH 1.2; type: physicochemical
[14] = molecular target: Mitogen-activated protein kinase 14 (Homo sapiens, UniProt Q16539)
Sequence of Mitogen-activated protein kinase 14 (Q16539 whole entry): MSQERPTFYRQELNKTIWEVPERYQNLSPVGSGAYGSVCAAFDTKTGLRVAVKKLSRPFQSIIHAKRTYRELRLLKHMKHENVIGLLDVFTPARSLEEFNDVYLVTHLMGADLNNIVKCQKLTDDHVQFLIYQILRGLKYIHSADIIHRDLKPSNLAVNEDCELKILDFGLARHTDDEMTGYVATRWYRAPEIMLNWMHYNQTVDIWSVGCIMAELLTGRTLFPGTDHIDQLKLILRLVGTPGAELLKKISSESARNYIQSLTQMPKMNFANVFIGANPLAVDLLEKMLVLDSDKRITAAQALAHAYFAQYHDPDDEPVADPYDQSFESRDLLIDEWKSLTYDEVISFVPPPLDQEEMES

Sequence of Vascular endothelial growth factor receptor 1 (P17948 whole entry): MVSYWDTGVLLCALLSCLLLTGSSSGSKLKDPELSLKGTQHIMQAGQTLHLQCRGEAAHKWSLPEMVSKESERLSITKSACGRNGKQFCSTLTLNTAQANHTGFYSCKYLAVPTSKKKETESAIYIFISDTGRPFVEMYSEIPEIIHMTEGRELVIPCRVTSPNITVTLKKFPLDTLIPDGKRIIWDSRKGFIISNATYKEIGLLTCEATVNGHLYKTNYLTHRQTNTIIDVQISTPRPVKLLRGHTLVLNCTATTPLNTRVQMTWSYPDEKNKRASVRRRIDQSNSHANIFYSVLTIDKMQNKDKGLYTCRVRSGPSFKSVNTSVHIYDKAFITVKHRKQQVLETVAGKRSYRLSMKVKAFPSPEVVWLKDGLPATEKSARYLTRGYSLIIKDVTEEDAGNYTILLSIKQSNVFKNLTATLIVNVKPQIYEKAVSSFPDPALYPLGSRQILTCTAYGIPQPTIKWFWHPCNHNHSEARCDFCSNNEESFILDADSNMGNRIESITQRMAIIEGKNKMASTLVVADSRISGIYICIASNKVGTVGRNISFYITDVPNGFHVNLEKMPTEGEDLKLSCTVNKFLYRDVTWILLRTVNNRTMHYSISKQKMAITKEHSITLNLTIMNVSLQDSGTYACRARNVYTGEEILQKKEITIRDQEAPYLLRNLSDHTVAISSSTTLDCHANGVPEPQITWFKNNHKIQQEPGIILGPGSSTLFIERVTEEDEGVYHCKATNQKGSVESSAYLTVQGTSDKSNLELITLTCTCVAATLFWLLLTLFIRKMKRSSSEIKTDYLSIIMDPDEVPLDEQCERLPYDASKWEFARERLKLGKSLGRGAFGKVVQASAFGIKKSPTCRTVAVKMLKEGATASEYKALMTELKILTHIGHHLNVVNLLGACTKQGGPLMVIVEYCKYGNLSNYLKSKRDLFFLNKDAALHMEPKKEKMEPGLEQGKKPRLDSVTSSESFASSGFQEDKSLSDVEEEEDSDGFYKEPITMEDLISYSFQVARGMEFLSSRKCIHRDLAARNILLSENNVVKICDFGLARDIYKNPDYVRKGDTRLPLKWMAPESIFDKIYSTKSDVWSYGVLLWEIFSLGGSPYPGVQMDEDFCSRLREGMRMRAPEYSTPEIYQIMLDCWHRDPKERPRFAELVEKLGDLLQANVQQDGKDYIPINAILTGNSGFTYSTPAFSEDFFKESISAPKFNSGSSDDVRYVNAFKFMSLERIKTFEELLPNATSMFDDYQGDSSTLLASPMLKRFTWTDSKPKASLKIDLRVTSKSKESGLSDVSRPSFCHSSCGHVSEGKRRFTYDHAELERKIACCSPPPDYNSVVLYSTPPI
Sequence of Vascular endothelial growth factor receptor 3 (P35916 whole entry): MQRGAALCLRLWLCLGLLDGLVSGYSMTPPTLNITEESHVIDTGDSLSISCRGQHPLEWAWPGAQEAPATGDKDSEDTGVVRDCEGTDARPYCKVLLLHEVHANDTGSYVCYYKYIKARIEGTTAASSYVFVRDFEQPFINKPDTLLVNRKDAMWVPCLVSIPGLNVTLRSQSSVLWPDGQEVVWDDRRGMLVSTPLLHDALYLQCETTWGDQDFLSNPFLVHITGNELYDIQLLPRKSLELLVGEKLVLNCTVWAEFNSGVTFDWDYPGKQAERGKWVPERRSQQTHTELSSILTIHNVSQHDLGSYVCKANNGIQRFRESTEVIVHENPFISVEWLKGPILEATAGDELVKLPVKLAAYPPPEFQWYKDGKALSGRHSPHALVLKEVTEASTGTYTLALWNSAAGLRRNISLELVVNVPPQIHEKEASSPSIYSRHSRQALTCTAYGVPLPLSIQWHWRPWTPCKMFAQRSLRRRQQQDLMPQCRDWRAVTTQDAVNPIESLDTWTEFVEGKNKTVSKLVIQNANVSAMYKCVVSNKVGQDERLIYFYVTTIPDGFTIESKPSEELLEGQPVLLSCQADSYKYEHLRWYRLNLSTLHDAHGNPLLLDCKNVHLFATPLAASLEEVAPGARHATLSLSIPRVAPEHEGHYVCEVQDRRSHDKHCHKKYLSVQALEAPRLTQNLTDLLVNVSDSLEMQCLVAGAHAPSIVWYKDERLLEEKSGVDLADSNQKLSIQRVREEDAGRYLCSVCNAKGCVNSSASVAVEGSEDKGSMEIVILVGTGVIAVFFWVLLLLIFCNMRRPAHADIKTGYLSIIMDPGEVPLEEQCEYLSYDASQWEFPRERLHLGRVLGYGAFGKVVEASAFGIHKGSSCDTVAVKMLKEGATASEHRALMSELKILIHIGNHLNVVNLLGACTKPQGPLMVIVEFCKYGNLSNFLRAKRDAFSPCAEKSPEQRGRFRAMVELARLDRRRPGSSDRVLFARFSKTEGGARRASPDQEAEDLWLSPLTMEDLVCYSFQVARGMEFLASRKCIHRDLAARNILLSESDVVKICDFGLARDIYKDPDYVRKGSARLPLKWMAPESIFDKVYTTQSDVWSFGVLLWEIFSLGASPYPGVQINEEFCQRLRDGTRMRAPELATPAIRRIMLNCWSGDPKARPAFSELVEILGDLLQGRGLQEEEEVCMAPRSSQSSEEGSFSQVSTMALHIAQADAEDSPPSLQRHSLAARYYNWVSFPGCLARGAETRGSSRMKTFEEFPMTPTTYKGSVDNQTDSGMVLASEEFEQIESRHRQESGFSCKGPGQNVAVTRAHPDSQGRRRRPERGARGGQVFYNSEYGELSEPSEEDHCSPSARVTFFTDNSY
Sequence of Vascular endothelial growth factor receptor 2 (P35968 whole entry): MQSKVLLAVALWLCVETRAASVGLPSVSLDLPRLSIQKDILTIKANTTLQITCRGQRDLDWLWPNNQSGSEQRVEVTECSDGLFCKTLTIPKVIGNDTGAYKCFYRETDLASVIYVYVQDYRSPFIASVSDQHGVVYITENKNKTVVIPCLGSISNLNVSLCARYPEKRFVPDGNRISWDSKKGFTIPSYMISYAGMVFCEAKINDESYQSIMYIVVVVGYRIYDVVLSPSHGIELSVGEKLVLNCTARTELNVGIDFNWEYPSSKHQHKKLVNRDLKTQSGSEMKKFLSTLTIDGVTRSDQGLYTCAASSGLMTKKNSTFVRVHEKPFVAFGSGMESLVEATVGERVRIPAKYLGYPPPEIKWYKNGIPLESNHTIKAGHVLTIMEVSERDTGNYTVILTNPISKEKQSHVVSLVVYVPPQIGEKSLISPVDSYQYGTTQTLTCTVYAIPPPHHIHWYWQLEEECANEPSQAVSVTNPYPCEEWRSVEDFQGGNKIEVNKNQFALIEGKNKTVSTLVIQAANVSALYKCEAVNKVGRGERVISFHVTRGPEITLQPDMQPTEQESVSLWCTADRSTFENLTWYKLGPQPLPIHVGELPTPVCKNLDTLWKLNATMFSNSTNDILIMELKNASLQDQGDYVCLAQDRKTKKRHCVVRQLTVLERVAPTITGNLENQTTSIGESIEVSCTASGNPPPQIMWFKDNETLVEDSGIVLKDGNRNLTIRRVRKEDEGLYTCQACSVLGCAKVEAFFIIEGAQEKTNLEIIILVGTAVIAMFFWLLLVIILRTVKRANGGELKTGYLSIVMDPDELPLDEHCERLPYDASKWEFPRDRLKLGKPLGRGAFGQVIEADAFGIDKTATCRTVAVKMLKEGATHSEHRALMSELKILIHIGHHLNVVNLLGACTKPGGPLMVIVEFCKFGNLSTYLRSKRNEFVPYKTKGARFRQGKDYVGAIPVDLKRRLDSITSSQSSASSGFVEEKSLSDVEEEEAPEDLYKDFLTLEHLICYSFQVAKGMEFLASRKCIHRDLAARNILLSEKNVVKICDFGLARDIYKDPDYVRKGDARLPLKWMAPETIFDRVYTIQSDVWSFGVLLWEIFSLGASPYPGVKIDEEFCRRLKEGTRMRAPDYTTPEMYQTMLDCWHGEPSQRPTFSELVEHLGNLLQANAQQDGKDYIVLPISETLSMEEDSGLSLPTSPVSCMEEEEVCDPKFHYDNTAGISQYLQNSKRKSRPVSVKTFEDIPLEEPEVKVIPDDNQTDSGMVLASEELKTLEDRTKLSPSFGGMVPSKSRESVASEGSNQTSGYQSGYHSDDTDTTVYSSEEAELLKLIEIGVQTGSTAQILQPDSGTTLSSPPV

| Compound | Stability [1] [peak area] | Stability [2] [peak area] | Stability [3] [peak area] | Stability [4] [peak area] | Stability [5] [peak area] | IC50 [6] [nM] | IC50 (TGF-beta receptor type-1) [nM] | IC50 [7] [nM] | Stability [8] [peak area] | IC50 [9] [nM] | Stability [10] [peak area] | IC50 [11] [nM] | IC50 [12] [nM] | solubility [13] [mg/mL] | IC50 [14] [nM] |
| --- | --- | --- | --- | --- | --- | --- | --- | --- | --- | --- | --- | --- | --- | --- | --- |
| Cc1cccc(-c2[nH]c(Cc3cccc(C(N)=O)c3)nc2-c2ccc3nccnc3c2)n1 | 12.4 | 33.4 | 17 | 15.4 |  |  |  |  |  |  |  |  |  |  |  |
| Cc1cccc(-c2nc(Cc3cccc(C(N)=O)c3)[nH]c2-c2ccc3ncccc3c2)n1 |  |  |  |  | 10.6 | 940 | 34 | 3000 | 1.99 | 2100 | 11.3 | 650 | 2200 | 14.3 (≈ 34.1 mM) | 540 |
| Cc1cccc(-c2[nH]c(Cc3cccc(C#N)c3)nc2-c2ccc3ncccc3c2)n1 |  |  |  |  |  |  |  |  |  |  |  |  |  | 7.1 (≈ 17.7 mM) |  |

Reference: ChEMBL document CHEMBL1165953, “Synthesis and biological evaluation of 4(5)-(6-methylpyridin-2-yl)imidazoles and -pyrazoles as transforming growth factor-beta type 1 receptor kinase inhibitors” (Bioorg Med Chem, 2010)
